From ChEMBL document CHEMBL1125250 (J Med Chem, 1991) come the findings set out here.

The structures appear in SMILES notation.

One data set concerns the target T1, Aromatase (Rattus norvegicus, UniProt P22443).
T1 sequence (P22443 whole entry): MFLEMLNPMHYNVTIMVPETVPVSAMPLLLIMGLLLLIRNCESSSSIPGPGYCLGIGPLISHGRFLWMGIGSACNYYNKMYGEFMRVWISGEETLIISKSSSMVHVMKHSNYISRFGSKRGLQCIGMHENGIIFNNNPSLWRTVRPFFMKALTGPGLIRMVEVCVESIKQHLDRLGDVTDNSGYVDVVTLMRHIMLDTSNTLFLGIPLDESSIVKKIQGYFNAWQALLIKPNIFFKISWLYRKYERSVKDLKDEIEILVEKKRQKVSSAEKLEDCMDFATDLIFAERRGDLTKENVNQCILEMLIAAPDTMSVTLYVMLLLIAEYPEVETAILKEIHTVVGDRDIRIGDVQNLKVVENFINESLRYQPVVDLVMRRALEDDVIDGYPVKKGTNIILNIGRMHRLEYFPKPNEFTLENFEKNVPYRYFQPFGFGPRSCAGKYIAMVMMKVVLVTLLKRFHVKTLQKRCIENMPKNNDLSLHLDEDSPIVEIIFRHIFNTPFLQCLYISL

Data set [1] has as its target T2, Cholesterol side-chain cleavage enzyme, mitochondrial (Homo sapiens, UniProt P05108).
T2 sequence (P05108 whole entry): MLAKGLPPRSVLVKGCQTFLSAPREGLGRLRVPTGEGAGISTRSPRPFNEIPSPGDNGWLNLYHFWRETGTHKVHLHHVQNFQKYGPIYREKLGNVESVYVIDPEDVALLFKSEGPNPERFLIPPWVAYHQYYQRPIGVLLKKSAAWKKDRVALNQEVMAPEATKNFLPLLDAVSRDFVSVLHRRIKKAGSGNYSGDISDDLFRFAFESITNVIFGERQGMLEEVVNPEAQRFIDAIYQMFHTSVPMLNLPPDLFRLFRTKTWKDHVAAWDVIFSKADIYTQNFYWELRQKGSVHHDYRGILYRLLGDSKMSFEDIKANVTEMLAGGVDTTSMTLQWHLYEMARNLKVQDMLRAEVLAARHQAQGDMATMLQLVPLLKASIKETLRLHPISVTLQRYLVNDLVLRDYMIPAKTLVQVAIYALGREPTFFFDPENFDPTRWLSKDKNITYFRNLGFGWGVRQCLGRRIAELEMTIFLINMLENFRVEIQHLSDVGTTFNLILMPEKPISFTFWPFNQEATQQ
Type of data set: functional, Cricetulus griseus.

At Aromatase, `CCOC(=O)c1ccc(C2CCCc3cncn32)cc1.Cl` (centres undefined) returned an EDmin greater than 10 µM/kg.

Turning to `Brc1ccc(C2CCCc3cncn32)cc1.Cl` (centres undefined), the EDmin at Aromatase is 0.5 µM/kg.

On to `OCc1ccc(C2CCCc3cncn32)cc1` (centres undefined), for which the EDmin on Aromatase was found to be 0.5 µM/kg.

As usually defined, the IC50 is the concentration that inhibits the measured activity by half. Low values mean greater potency, high ones weaker potency. `CCC1(c2ccc(N)cc2)CCC(=O)NC1=O` (centres undefined) [AMINOGLUTETHIMIDE]: half-maximal inhibition in data set [1] (IC50) was put at 80 µM.
